Data as given in patent EP3359195B1 (AB Science, priority 2015, dated 2017).
Where two headings read alike, the source gives them in different places.

Assays:
mastocytosis = details: cited from earlier work; for major response: more than 50% improvement in symptoms and signs; for overall response rate: sum of CR, MR and PR
[1] = system: Ba/F3 cells expressing the D816V c-Kit mutation; details: read-out: IC50, proliferation; cited from earlier work
[2] = system: severe systemic mastocytosis; assay: post-hoc analysis of pooled phase 2 studies AB06013 and AB04010, cohort simulating severe systemic mastocytosis; assay type: in vivo, human; details: for Cumulative response rate (≥75 %) from W8 to W24, Hamilton or FIS / Cumulative response rate (≥75 %) from W8 to W24, Flushes or Pruritus: 2-handicap response rate; for Cumulative response rate (≥75 %) from W8 to W24, Hamilton or FIS: at least one handicap from [Hamilton or FIS]; for Cumulative response rate (≥75 %) from W8 to W24, Flushes or Pruritus: at least one handicap from [flushes or pruritus]
[3] = system: Ba/F3 cells expressing human or mouse wild-type c-Kit; details: read-out: IC50, stem cell factor-induced proliferation and c-Kit tyrosine phosphorylation; cited from earlier work
[4] = entire evaluable study population (N=80)
[5] = missing data considered as failure (observed cases after W12)

## Nc1nc(Cl)nc2c1ncn2[C@H]1C[C@H](O)[C@@H](CO)O1 [Cladribine]
mastocytosis; [4]
  major response: 37%
  overall response rate: 55%
mastocytosis; patients with ISM (N=22)
  overall response rate: 56%

## NC(=O)NO [hydroxyurea]
mastocytosis; [4]
  major response: 0%
  overall response rate: 19%
mastocytosis; patients with ISM (N=22)
  overall response rate: 0%

## Cc1ccc(NC(=O)c2ccc(CN3CCN(C)CC3)cc2)cc1Nc1nccc(-c2cccnc2)n1 [imatinib mesilate]
mastocytosis; [4]
  major response: 9%
  overall response rate: 18%
mastocytosis; patients with ISM (N=22)
  overall response rate: 14%

## Cc1ccc(NC(=O)c2ccc(CN3CCN(C)CC3)cc2)cc1Nc1nc(-c2cccnc2)cs1 [masitinib, 4-(4-methylpiperazin-1-ylmethyl)-N-[4-methyl-3-(4-pyridin-3ylthiazol-2-ylamino)phenyl]benzamide]
[1]
  IC50: 5000 ± 2000 nM
[2]
  Cumulative response rate (≥75 %) from W8 to W24, Hamilton or FIS: ~10%
  Cumulative response rate (≥75 %) from W8 to W24, Flushes or Pruritus: approximately 40%
[2]; listed as Masitinib
  Cumulative response rate (≥75 %) from W8 to W24, Hamilton or FIS: 10.3%
  Cumulative response rate (≥75 %) from W8 to W24, Flushes or Pruritus: 38.8%
[2]; Week 12, at least one severe handicap among pruritus, flushes, fatigue or depression at baseline, missing data considered as failure, listed as Masitinib
  Overall response ≥ 75%: 25.0%
[2]; Week 12, patients with both pruritus score ≥9 and flushes per week ≥8 at baseline (4 patients, 8 handicaps)
  Overall response ≥ 75%: 1/8 (12.5%)
[2]; Week 24, at least one severe handicap among pruritus, flushes, fatigue or depression at baseline, missing data considered as failure
  Overall response ≥ 75%: 23.5%
[2]; Week 24, at least one severe handicap among pruritus, flushes, fatigue or depression at baseline, missing data considered as failure, listed as Masitinib
  Overall response ≥ 75%: 23.5%
[2]; Week 24, patients with both pruritus score ≥9 and flushes per week ≥8 at baseline (4 patients, 8 handicaps)
  Overall response ≥ 75%: 50%
[2]; at least one handicap among pruritus, flushes, fatigue or depression, W8, W12, W24
  Cumulative response rate (≥75 %) from W8 to W24, Overall Response: 26.1%
[2]; [5]
  Cumulative response rate (≥75 %) from W8 to W24, FIS only: 8.0%
  Cumulative response rate (≥75 %) from W8 to W24, Flushes only: 52.8%
  Cumulative response rate (≥75 %) from W8 to W24, Hamilton only: 16.7%
  Cumulative response rate (≥75 %) from W8 to W24, Micturition frequency (pollakiuria) only: 1.8%
  Cumulative response rate (≥75 %) from W8 to W24, Pruritus only: 28.6%
  Cumulative response rate (≥75 %) from W8 to W24, Stool frequency (diarrhea) only: 18.4%
[3]
  IC50: 150 ± 80 nM
